Assay results from patent US11078197B2, “5-membered and bicyclic heterocyclic amides as inhibitors of rock” (BRISTOL-MYERS SQUIBB COMPANY, priority 2017, dated 2021).

molecular target: ROCK2 (Homo sapiens (Human), UniProt O75116); test: ROCK2 assay (peptide phosphorylation, LABCHIP 3000 Reader); assay type: biochemical; conditions: 5 μM ATP, 1.5 μM peptide substrate, dose-response
Description: After incubation, the reaction was terminated by the addition of EDTA and the phosphorylated and non-phosphorylated peptides separated using a LABCHIP®3000 Reader (Caliper Life Sciences). […] Compounds were tested in dose-response format, and the inhibition of kinase activity was calculated at each concentration of compound. […] Representative Examples were tested in the ROCK2 assay described above and found having ROCK2 inhibitory activity.

Sequence of ROCK2 (O75116 whole entry, species assumed): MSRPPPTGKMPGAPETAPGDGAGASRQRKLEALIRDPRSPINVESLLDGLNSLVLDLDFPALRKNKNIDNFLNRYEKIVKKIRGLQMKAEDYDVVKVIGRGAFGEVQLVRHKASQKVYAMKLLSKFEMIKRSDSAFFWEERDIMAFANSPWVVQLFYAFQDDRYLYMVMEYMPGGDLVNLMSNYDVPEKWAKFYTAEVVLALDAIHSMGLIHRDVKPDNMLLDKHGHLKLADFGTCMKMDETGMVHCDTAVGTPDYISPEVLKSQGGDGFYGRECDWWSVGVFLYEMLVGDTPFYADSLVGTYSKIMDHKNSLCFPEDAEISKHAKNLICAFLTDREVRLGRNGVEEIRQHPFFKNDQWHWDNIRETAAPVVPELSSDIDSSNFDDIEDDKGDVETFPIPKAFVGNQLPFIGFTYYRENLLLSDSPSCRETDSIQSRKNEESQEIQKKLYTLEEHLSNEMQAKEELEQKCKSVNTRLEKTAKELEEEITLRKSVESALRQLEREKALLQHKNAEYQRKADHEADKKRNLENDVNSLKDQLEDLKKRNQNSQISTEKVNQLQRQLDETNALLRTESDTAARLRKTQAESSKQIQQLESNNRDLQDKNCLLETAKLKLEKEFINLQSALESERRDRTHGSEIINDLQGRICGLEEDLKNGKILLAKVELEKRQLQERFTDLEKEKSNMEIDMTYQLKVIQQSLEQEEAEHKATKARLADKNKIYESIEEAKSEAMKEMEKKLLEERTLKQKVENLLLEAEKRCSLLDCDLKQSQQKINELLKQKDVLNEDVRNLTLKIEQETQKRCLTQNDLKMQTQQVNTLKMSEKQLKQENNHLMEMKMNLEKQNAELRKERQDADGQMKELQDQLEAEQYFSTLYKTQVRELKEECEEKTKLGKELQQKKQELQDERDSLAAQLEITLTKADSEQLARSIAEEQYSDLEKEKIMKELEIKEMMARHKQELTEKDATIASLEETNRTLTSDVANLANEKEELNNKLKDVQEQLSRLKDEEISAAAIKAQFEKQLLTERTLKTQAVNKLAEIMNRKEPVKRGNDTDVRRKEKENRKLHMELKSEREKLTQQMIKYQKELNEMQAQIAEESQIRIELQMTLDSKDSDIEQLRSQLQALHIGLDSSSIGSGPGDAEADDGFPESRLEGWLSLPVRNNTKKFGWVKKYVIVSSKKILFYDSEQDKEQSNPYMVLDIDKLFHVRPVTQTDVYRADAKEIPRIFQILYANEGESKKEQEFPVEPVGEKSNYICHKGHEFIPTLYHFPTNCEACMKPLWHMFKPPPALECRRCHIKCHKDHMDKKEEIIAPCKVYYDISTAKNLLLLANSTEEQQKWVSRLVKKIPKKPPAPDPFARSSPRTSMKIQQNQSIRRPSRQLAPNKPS

First: Cc1ccc2c(C(N)=O)c(O[C@H]3C[C@@]4(C[C@H](NC(=O)c5nn(C(F)F)c6cc(OCC(C)(C)O)ccc56)C4)C3)nn2c1 (stereo partly drawn) [Example 126, 1-(difluoromethyl)-6-(2-hydroxy-2-methylpropoxy)-N-[(4s)-6-({3-carbamoyl-6-methylpyrazolo[1,5-a]pyridin-2-yl}oxy)spiro[3.3]heptan-2-yl]-1H-indazole-3-carboxamide]
Second: CC(C)(O)COc1ccc2c(C(=O)N[C@H]3C[C@]4(C3)C[C@H](Oc3nn5cc(F)ccc5c3C(N)=O)C4)nn(C(F)F)c2c1 (stereo partly drawn) [Example 128, 1-(difluoromethyl)-6-(2-hydroxy-2-methylpropoxy)-N-[(4s)-6-({3-carbamoyl-6-fluoropyrazolo[1,5-a]pyridin-2-yl}oxy)spiro[3.3]heptan-2-yl]-1H-indazole-3-carboxamide]
The IC50 of the first is 1.8-fold lower: 46.4 nM for the first, 83.2 nM for the second. The first is the more potent here.

Going from `NC(=O)c1c(O[C@H]2C[C@@]3(C[C@H](NC(=O)c4cnn5cc(OCC(F)F)ccc45)C3)C2)nn2cc(F)ccc12` (stereo partly drawn) [Example 127, 6-fluoro-2-{[(4s)-6-[6-(2,2-difluoroethoxy)pyrazolo[1,5-a]pyridine-3-amido]spiro[3.3]heptan-2-yl]oxy}pyrazolo[1,5-a]pyridine-3-carboxamide] to `NC(=O)c1c(O[C@H]2C[C@@]3(C[C@H](NC(=O)c4cnn5cc(OCC(F)F)ccc45)C3)C2)nn2cc(C(F)(F)F)ccc12` (stereo partly drawn) [Example 131, 2-{[(4s)-6-[6-(2,2-difluoroethoxy)pyrazolo[1,5-a]pyridine-3-amido]spiro[3.3]heptan-2-yl]oxy}-6-(trifluoromethyl)pyrazolo[1,5-a]pyridine-3-carboxamide], the IC50 rises from 113 nM to 1170 nM (10-fold).

First: Cc1c(C(=O)N[C@H]2C[C@]3(C2)C[C@H](Oc2nn4cc(F)ccc4c2C(N)=O)C3)cnn1-c1ccc(C#N)cc1 (stereo partly drawn) [Example 129, 1-(4-cyanophenyl)-5-methyl-N-[(4s)-6-({3-carbamoyl-6-fluoropyrazolo[1,5-a]pyridin-2-yl}oxy)spiro[3.3]heptan-2-yl]-1H-pyrazole-4-carboxamide]
Second: Cc1c(C(=O)N[C@H]2C[C@]3(C2)C[C@H](Oc2nc4c(cnn4C)cc2C(N)=O)C3)cnn1-c1ccc(S(C)(=O)=O)cc1 (stereo partly drawn) [Example 150, 1-(4-methanesulfonylphenyl)-5-methyl-N-[(4s)-6-({5-carbamoyl-1-methyl-1H-pyrazolo[3,4-b]pyridin-6-yl}oxy)spiro[3.3]heptan-2-yl]-1H-pyrazole-4-carboxamide]
The IC50 of the first is 99-fold higher: 702 nM for the first, 7.1 nM for the second.

Going from `CC(C)(O)COc1ccc2c(C(=O)N[C@H]3C[C@]4(C3)C[C@H](Oc3nn5cc(C(F)(F)F)ccc5c3C(N)=O)C4)nn(C(F)F)c2c1` (stereo partly drawn) [Example 130, 1-(difluoromethyl)-6-(2-hydroxy-2-methylpropoxy)-N-[(4s)-6-{[3-carbamoyl-6-(trifluoromethyl)pyrazolo[1,5-a]pyridin-2-yl]oxy}spiro[3.3]heptan-2-yl]-1H-indazole-3-carboxamide] to `Cc1ccn2nc(O[C@H]3C[C@@]4(C[C@H](NC(=O)c5nn(C(F)F)c6cc(OCC(C)(C)O)ccc56)C4)C3)c(C(N)=O)c2c1` (stereo partly drawn) [Example 132, 1-(difluroomethyl)-6-(2-hydroxy-2-methylpropoxy)-N-[(4s)-6-({3-carbamoyl-5-methylpyrazolo[1,5-a]pyridin-2-yl}oxy)spiro[3.3]heptan-2-yl]-1H-indazole-3-carboxamide], the IC50 falls from 611 nM to 223 nM (2.7-fold).

`Cc1cccc2c(C(N)=O)c(O[C@H]3C[C@@]4(C[C@H](NC(=O)c5nn(C(F)F)c6cc(OCC(C)(C)O)ccc56)C4)C3)nn12` (stereo partly drawn) [Example 133, 1-(difluoromethyl)-6-(2-hydroxy-2-methylpropoxy)-N-[(4s)-6-({3-carbamoyl-7-methylpyrazolo[1,5-a]pyridin-2-yl}oxy)spiro[3.3]heptan-2-yl]-1H-indazole-3-carboxamide] and `COc1cccc2c(C(N)=O)c(O[C@H]3C[C@@]4(C[C@H](NC(=O)c5nn(C(F)F)c6cc(OCC(C)(C)O)ccc56)C4)C3)nn12` (stereo partly drawn) [Example 138, 1-(difluoromethyl)-6-(2-hydroxy-2-methylpropoxy)-N-[(4s)-6-({3-carbamoyl-7-methoxypyrazolo[1,5-a]pyridin-2-yl}oxy)spiro[3.3]heptan-2-yl]-1H-indazole-3-carboxamide] are within 1.5-fold of each other in IC50: 20.2 nM for the first, 22 nM for the second.

`CC(C)(O)COc1ccc2c(C(=O)N[C@H]3C[C@]4(C3)C[C@H](Oc3nn5c(-c6ccccc6)cccc5c3C(N)=O)C4)nn(C(F)F)c2c1` (stereo partly drawn) [Example 134, 1-(difluoromethyl)-6-(2-hydroxy-2-methylpropoxy)-N-[(4s)-6-({3-carbamoyl-7-phenylpyrazolo[1,5-a]pyridin-2-yl}oxy)spiro[3.3]heptan-2-yl]-1H-indazole-3-carboxamide] and `CC(C)(O)COc1ccc2c(C(=O)N[C@H]3C[C@]4(C3)C[C@H](Oc3nn5ccc(-c6ccccc6)cc5c3C(N)=O)C4)nn(C(F)F)c2c1` (stereo partly drawn) [Example 137, 1-(difluoromethyl)-6-(2-hydroxy-2-methylpropoxy)-N-[(4s)-6-({3-carbamoyl-5-phenylpyrazolo[1,5-a]pyridin-2-yl}oxy)spiro[3.3]heptan-2-yl]-1H-indazole-3-carboxamide] are within 1.5-fold of each other in IC50: 143 nM for the first, 150 nM for the second.

Going from `CC(C)(O)COc1ccc2c(C(=O)N[C@H]3C[C@]4(C3)C[C@H](Oc3nn5cc(-c6ccc(F)nc6)ccc5c3C(N)=O)C4)nn(C(F)F)c2c1` (stereo partly drawn) [Example 135, 1-(difluoromethyl)-6-(2-hydroxy-2-methylpropoxy)-N-[(4s)-6-{[3-carbamoyl-6-(6-fluoropyridin-3-yl)pyrazolo[1,5-a]pyridin-2-yl]oxy}spiro[3.3]heptan-2-yl]-1H-indazole-3-carboxamide] to `CC(C)(O)COc1ccc2c(C(=O)N[C@H]3C[C@]4(C3)C[C@H](Oc3nn5ccc(-c6ccc(F)nc6)cc5c3C(N)=O)C4)nn(C(F)F)c2c1` (stereo partly drawn) [Example 136, 1-(difluoromethyl)-6-(2-hydroxy-2-methylpropoxy)-N-[(4s)-6-{[3-carbamoyl-5-(6-fluoropyridin-3-yl)pyrazolo[1,5-a]pyridin-2-yl]oxy}spiro[3.3]heptan-2-yl]-1H-indazole-3-carboxamide], the IC50 falls from 390 nM to 112 nM (3.5-fold). The second is the more potent here.

Going from `CC(C)CC1NC(=O)N([C@H]2CC3(C[C@H](Oc4nn5ccccc5c4C(N)=O)C3)C2)C1=O` (stereo partly drawn) [Example 139, 2-(((2S,4s,6S)-6-(4-isobutyl-2,5-dioxoimidazolidin-1-yl)spiro[3.3]heptan-2-yl)oxy)pyrazolo[1,5-a]pyridine-3-carboxamide] to `CC(CC1NC(=O)N([C@H]2C[C@@]3(C[C@H](Oc4nn5ccccc5c4C(N)=O)C3)C2)C1=O)C(F)(F)F` (stereo partly drawn) [Example 140, 2-{[(4s)-6-[2,5-dioxo-4-(3,3,3-trifluoro-2-methylpropyl)imidazolidin-1-yl]spiro[3.3]heptan-2-yl]oxy}pyrazolo[1,5-a]pyridine-3-carboxamide], the IC50 falls from 208 nM to 62.1 nM (3.3-fold).

Going from `CC(CC1NC(=O)N([C@H]2C[C@@]3(C[C@H](Oc4nn5ccccc5c4C(N)=O)C3)C2)C1=O)C(F)(F)F` (stereo partly drawn) [Example 141, 2-{[(4s)-6-[2,5-dioxo-4-(3,3,3-trifluoro-2-methylpropyl)imidazolidin-1-yl]spiro[3.3]heptan-2-yl]oxy}pyrazolo[1,5-a]pyridine-3-carboxamide] to `NC(=O)c1cc2c(nc1O[C@H]1C[C@@]3(C[C@H](NC(=O)c4cccc(OC(F)(F)F)c4)C3)C1)CCOC2` (stereo partly drawn) [Example 143, 2-{[(4s)-6-[3-(trifluoromethoxy)benzamido]spiro[3.3]heptan-2-yl]oxy}-5H,7H,8H-pyrano[4,3-b]pyridine-3-carboxamide], the IC50 falls from 203 nM to 109 nM (1.9-fold).

Going from `CC(C)CNc1nnc(C(=O)N[C@H]2C[C@]3(C2)C[C@H](Oc2nc4c(cc2C(N)=O)COCC4)C3)s1` (stereo partly drawn) [Example 142, 5-[(2-methylpropyl)amino]-N-[(4s)-6-({3-carbamoyl-5H,7H,8H-pyrano[4,3-b]pyridin-2-yl}oxy)spiro[3.3]heptan-2-yl]-1,3,4-thiadiazole-2-carboxamide] to `Cc1nc(NCC(C)C)sc1C(=O)N[C@H]1C[C@]2(C1)C[C@H](Oc1nc3c(cc1C(N)=O)COCC3)C2` (stereo partly drawn) [Example 145, 4-methyl-2-[(2-methylpropyl)amino]-N-[(4s)-6-({3-carbamoyl-5H,7H,8H-pyrano[4,3-b]pyridin-2-yl}oxy)spiro[3.3]heptan-2-yl]-1,3-thiazole-5-carboxamide], the IC50 rises from 60.3 nM to 111 nM (1.8-fold). The first is the more potent here.

Going from `Cc1nc(NCC(C)(C)O)sc1C(=O)N[C@H]1C[C@]2(C1)C[C@H](Oc1nc3c(cc1C(N)=O)COCC3)C2` (stereo partly drawn) [Example 144, 2-[(2-hydroxy-2-methylpropyl)amino]-4-methyl-N-[(4s)-6-({3-carbamoyl-5H,7H,8H-pyrano[4,3-b]pyridin-2-yl}oxy)spiro[3.3]heptan-2-yl]-1,3-thiazole-5-carboxamide] to `Cn1ncc2cc(C(N)=O)c(O[C@H]3C[C@@]4(C[C@H](NC(=O)c5cnn6c(C7CC7)c(OCC(C)(C)O)ccc56)C4)C3)nc21` (stereo partly drawn) [Example 147, 7-cyclopropyl-6-(2-hydroxy-2-methylpropoxy)-N-[(4s)-6-({5-carbamoyl-1-methyl-1H-pyrazolo[3,4-b]pyridin-6-yl}oxy)spiro[3.3]heptan-2-yl]pyrazolo[1,5-a]pyridine-3-carboxamide], the IC50 falls from 367 nM to 2.9 nM (130-fold).

First: Cn1ncc2cc(C(N)=O)c(O[C@H]3C[C@@]4(C[C@H](NC(=O)c5cccc(CO)n5)C4)C3)nc21 (stereo partly drawn) [Example 148, 6-(hydroxymethyl)-N-[(4s)-6-({5-carbamoyl-1-methyl-1H-pyrazolo[3,4-b]pyridin-6-yl}oxy)spiro[3.3]heptan-2-yl]pyridine-2-carboxamide]
Second: Cn1ncc2cc(C(N)=O)c(O[C@H]3C[C@@]4(C[C@H](NC(=O)c5nnc(-c6ccc(C(F)(F)F)cc6)s5)C4)C3)nc21 (stereo partly drawn) [Example 149, N-[(4s)-6-({5-carbamoyl-1-methyl-1H-pyrazolo[3,4-b]pyridin-6-yl}oxy)spiro[3.3]heptan-2-yl]-5-[4-(trifluoromethyl)phenyl]-1,3,4-thiadiazole-2-carboxamide]
The IC50 of the first is 3.6-fold higher: 52.7 nM for the first, 14.5 nM for the second. The second is the more potent here.
